# Measured values taken from ChEMBL document CHEMBL2021794, “Synthesis, σ₁, σ₂-receptors binding affinity and antiproliferative action of new C1-substituted adamantanes” (Bioorg Med Chem, 2012).
# What was measured:
# HCT-116 = assay: Growth inhibition of human HCT116 cells after 48 hrs by SRB assay; format: functional; settings: HCT-116, 48 h; for CC50: read-out: LC50 (the source's name)
# MCF7 = assay: Growth inhibition of human MCF7 cells after 48 hrs by SRB assay; format: functional; settings: MCF7, 48 h; for CC50: read-out: LC50 (the source's name)
# NCI-H460 = assay: Growth inhibition of human NCI-H460 cells after 48 hrs by SRB assay; format: functional; settings: NCI-H460, 48 h
# [1] = target: Sigma non-opioid intracellular receptor 1 (Homo sapiens, UniProt Q99720); assay: Displacement of [3H](+)pentazocine from sigma-1 receptor expressed in human Jurkat cell membranes after 2 hrs by liquid scintillation spectroscopy
# [2] = Displacement of [3H]BTX-B from Na+ channel site 2 after 60 mins by liquid scintillation spectroscopy
# BXPC-3 = assay: Growth inhibition of human BxPC3 cells after 48 hrs by SRB assay; format: functional; settings: BXPC-3, 48 h
# [3] = Displacement of [3H](+)1-DTG from sigma-2 receptor expressed in rat cerebral cortex membranes after 2 hrs by liquid scintillation spectroscopy; format: cell membranes, Membrane
# OVCAR-5 = assay: Growth inhibition of human OVCAR5 cells after 48 hrs by SRB assay; format: functional; settings: OVCAR-5, 48 h; for CC50: read-out: LC50 (the source's name)
# SF-268 = assay: Growth inhibition of human SF268 cells after 48 hrs by SRB assay; format: functional; settings: SF-268, 48 h; for CC50: read-out: LC50 (the source's name)
# [4] = Selectivity ratio of IC50 for human sigma-1 receptor to IC50 for rat sigma-2 receptor
# MIA PaCa-2 = assay: Growth inhibition of human MIAPaCa2 cells after 48 hrs by SRB assay; format: functional; settings: MIA PaCa-2, 48 h; for CC50: read-out: LC50 (the source's name)
# HUVEC = assay: (§1) Growth inhibition of HUVEC cells after 48 hrs by SRB assay; format: cell-based; settings: human, huvec, 48 h
# [5] = as §1; format: cell-based; settings: human, HUVEC cells
# SK-HEP1 = assay: Growth inhibition of human SKHEP1 cells after 48 hrs by SRB assay; format: functional; settings: SK-HEP1, 48 h; for CC50: read-out: LC50 (the source's name)
# LOX IMVI = assay: Growth inhibition of human LOXIMVI cells after 48 hrs by SRB assay; format: functional
# [6] = (§2) Growth inhibition of NHDF cells after 48 hrs by SRB assay; format: cell-based; settings: human, NHDF cells
# NHDF = assay: as §2; format: cell-based; settings: human, nhdf, 48 h
# HL-60(TB) = assay: Growth inhibition of human HL-60(TB) cells after 48 hrs by SRB assay; format: functional; settings: HL-60, 48 h
# DMS-114 = assay: Growth inhibition of human DMS114 cells after 48 hrs by SRB assay; format: functional; settings: DMS-114, 48 h
# IGROV-1 = assay: Growth inhibition of human IGROV1 cells after 48 hrs by SRB assay; format: functional; settings: IGROV-1, 48 h
# HCT-15 = assay: Growth inhibition of human HCT15 cells after 48 hrs by SRB assay; format: functional; settings: HCT-15, 48 h
# [7] = Growth inhibition of human MSC cells after 48 hrs by SRB assay; format: cell-based
# [8] = read-out: LC50 (the source's name)
# Chain of Sigma non-opioid intracellular receptor 1 (Q99720 whole entry): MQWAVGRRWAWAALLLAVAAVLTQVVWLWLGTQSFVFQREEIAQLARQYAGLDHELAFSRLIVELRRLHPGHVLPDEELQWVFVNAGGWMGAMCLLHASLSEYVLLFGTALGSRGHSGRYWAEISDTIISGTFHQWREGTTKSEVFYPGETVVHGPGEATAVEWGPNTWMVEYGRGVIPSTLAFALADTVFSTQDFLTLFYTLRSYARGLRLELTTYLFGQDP
compound,measurement,setting,value
c1ccc(C(c2ccc(N3CCOCC3)cc2)C23CC4CC(CC(C4)C2)C3)cc1 (stereo unspecified),TGI,HCT-116,100 µM
same,CC50,HCT-116,100 µM
same,TGI,MCF7,100 µM
same,CC50,MCF7,100 µM
same,LC50 (concentration killing 50% of cells),NCI-H460,100 µM
same,TGI,NCI-H460,100 µM
same,IC50,[1],> 0.1 µM
same,IC50,[2],> 10 µM
same,LC50,BXPC-3,100 µM
same,TGI,BXPC-3,100 µM
same,IC50,[3],> 1 µM
same,TGI,OVCAR-5,100 µM
same,CC50,OVCAR-5,100 µM
same,CC50,SF-268,100 µM
c1ccc(CN2CCN(c3ccc(C(c4ccccc4)C45CC6CC(CC(C6)C4)C5)cc3)CC2)cc1 (stereo unspecified),GI50,HCT-116,12 µM
same,TGI,HCT-116,100 µM
same,CC50,HCT-116,100 µM
same,GI50,MCF7,22.3 µM
same,TGI,MCF7,99.4 µM
same,CC50,MCF7,100 µM
same,Ratio IC50,[4],1.9
same,GI50,NCI-H460,54.7 µM
same,LC50 (concentration killing 50% of cells),NCI-H460,100 µM
same,TGI,NCI-H460,100 µM
same,IC50,[1],0.0633 µM
same,IC50,[2],1.6 µM
same,GI50,BXPC-3,7.51 µM
same,LC50,BXPC-3,100 µM
same,TGI,BXPC-3,52.1 µM
same,IC50,[3],0.119 µM
same,GI50,MIA PaCa-2,14.9 µM
same,TGI,MIA PaCa-2,100 µM
same,CC50,MIA PaCa-2,100 µM
same,LC50,HUVEC,100 µM
same,TGI,HUVEC,100 µM
same,GI50 at 48 h,[5],76.8 µM
same,GI50,OVCAR-5,84.3 µM
same,TGI,OVCAR-5,100 µM
same,CC50,OVCAR-5,100 µM
same,CC50,SF-268,100 µM
same,GI50,SK-HEP1,23.5 µM
same,TGI,SK-HEP1,100 µM
same,CC50,SK-HEP1,100 µM
c1ccc(C(c2ccc(N3CCN(C4CCCCC4)CC3)cc2)C23CC4CC(CC(C4)C2)C3)cc1 (stereo unspecified),GI50,HCT-116,22.2 µM
same,TGI,HCT-116,100 µM
same,CC50,HCT-116,100 µM
same,GI50,MCF7,8.7 µM
same,TGI,MCF7,55 µM
same,CC50,MCF7,100 µM
same,Ratio IC50,[4],360
same,GI50,NCI-H460,47.3 µM
same,LC50 (concentration killing 50% of cells),NCI-H460,100 µM
same,TGI,NCI-H460,100 µM
same,IC50,[1],0.00027 µM
same,IC50,[2],0.7 µM
same,GI50,BXPC-3,8.58 µM
same,LC50,BXPC-3,100 µM
same,TGI,BXPC-3,76.8 µM
same,IC50,[3],0.097 µM
same,GI50,MIA PaCa-2,20.2 µM
same,TGI,MIA PaCa-2,66.1 µM
same,CC50,MIA PaCa-2,100 µM
same,GI50,OVCAR-5,55.4 µM
same,TGI,OVCAR-5,98.2 µM
same,CC50,OVCAR-5,100 µM
same,GI50,SF-268,53.1 µM
same,TGI,SF-268,99.8 µM
same,CC50,SF-268,100 µM
c1ccc(C(c2ccc(N3CCNCC3)cc2)C23CC4CC(CC(C4)C2)C3)cc1 (stereo unspecified),GI50,HCT-116,3.67 µM
same,TGI,HCT-116,6.54 µM
same,CC50,HCT-116,9.41 µM
same,GI50,MCF7,2.49 µM
same,TGI,MCF7,5.59 µM
same,CC50,MCF7,8.68 µM
same,GI50,LOX IMVI,2.79 µM
same,LC50 (concentration killing 50% of cells),LOX IMVI,8.11 µM
same,TGI,LOX IMVI,5.45 µM
same,GI50 at 48 h,[6],2.97 µM
same,LC50,NHDF,9.49 µM
same,TGI,NHDF,6.23 µM
same,GI50,HL-60(TB),5.97 µM
same,LC50,HL-60(TB),100 µM
same,TGI,HL-60(TB),9.92 µM
same,GI50,NCI-H460,3.74 µM
same,LC50 (concentration killing 50% of cells),NCI-H460,9.7 µM
same,TGI,NCI-H460,6.72 µM
same,IC50,[1],0.0124 µM
same,IC50,[2],1.2 µM
same,GI50,DMS-114,3.97 µM
same,TGI,DMS-114,6.51 µM
same,CC50,DMS-114; [8],9.05 µM
same,GI50,BXPC-3,3.61 µM
same,LC50,BXPC-3,9.05 µM
same,TGI,BXPC-3,6.33 µM
same,IC50,[3],> 1 µM
same,LC50,HUVEC,100 µM
same,TGI,HUVEC,7.62 µM
same,GI50 at 48 h,[5],4.8 µM
same,GI50,IGROV-1,3.32 µM
same,TGI,IGROV-1,6.1 µM
same,CC50,IGROV-1; [8],8.89 µM
same,GI50,HCT-15,3.4 µM
same,LC50,HCT-15,8.9 µM
same,TGI,HCT-15,6.15 µM
same,GI50,OVCAR-5,4.27 µM
same,TGI,OVCAR-5,7.33 µM
same,CC50,OVCAR-5,10.4 µM
same,GI50,SF-268,3.45 µM
same,TGI,SF-268,6.11 µM
same,CC50,SF-268,8.76 µM
same,GI50,SK-HEP1,3.91 µM
same,TGI,SK-HEP1,6.48 µM
same,CC50,SK-HEP1,9.04 µM
same,GI50 at 48 h,[7]; MSC cells,4.87 µM
same,LC50,"[7]; msc, 48 h",9.33 µM
same,TGI,"[7]; msc, 48 h",7.1 µM
